# Results: PMC10587126, “Molecular hybridization strategy for tuning bioactive peptide function” (Communications Biology, 2023)
# No end group written: not given here.
# Assays:
# [1] = Resistance to proteolytic degradation in fetal bovine serum; assay type: in vitro ADME; conditions: 25% fetal bovine serum in water, 37 °C
# Description: Stability assays were performed following the protocol described by Torres et al.[67]. Briefly, a peptide solution was added to GIBCO fetal bovine serum diluted to 25% in water and kept at 37 °C. The degradation kinetics were monitored by liquid chromatography and the percentage of peptide remaining in each case was calculated by integrating the peptide peak area. These experiments were performed as three independent replicates, and aliquots were taken at 0, 0.5, 1, 2, 4, and 6 h.
# [2] = test system: Pseudomonas aeruginosa PAO1; experiment: Broth microdilution MIC, ESKAPE pathogens; assay type: cell-based; conditions: strain not given (PAO1 and PA14 tested), LB, 37 °C, 24 h
# Description: Peptides were tested in antimicrobial assays against Serratia marcescens ATCC 4112, Enterobacter cloacae β-12, Micrococcus luteus A270, Bacillus megaterium ATCC 10778, Bacillus subtilis ATCC 6633, Candida albicans MDM8, Candida tropicalis IOC 4560, Acinetobacter baumannii ATCC 19606, Escherichia coli ATCC 11775, Escherichia coli AIC221, Escherichia coli AIC222, Klebsiella pneumoniae ATCC 13883, Staphylococcus aureus ATCC 12600, Pseudomonas aeruginosa PAO1, and Pseudomonas aeruginosa PA14. All microorganisms were obtained from the American Type Culture Collection (ATCC), Instituto Butantan, São Paulo, Brazil, and the clinical isolate strains were donated from the Oswaldo Cruz Institute Collection (IOC), Rio de Janeiro, Brazil.
# The minimal inhibitory concentration (MIC) against the ESKAPE pathogens was determined using the broth microdilution method[7] in Luria-Bertani (LB) medium. The MIC value was defined as the lowest concentration of peptide at which no microbial growth was observed. A. baumannii ATCC 19606, E. coli ATCC 11775, E. coli AIC221, E. coli AIC222, K. pneumoniae ATCC 13883, S. aureus ATCC 12600 P. aeruginosa PAO1, and P. aeruginosa PA14 were incubated on agar plates, and after 24 h, three isolated colonies were inoculated to 5 mL of Luria-Bertani (LB) broth and maintained at 37 °C overnight with shaking. Peptides were then added to 96-well polystyrene microtiter plates at concentrations ranging from 0 to 128 μmol L^−1, and 5 × 10^5 CFU mL^−1 of each bacterium was inoculated in each well. The plates were incubated at 37 °C for 24 h. Bacterial growth was measured using a microplate reader at 610 nm. Three independent replicates were performed.
# human erythrocytes = experiment: Hemolytic activity; assay type: cell-based; conditions: 0.1–100 μmol L^−1 in PBS, room temperature, 1 h, absorbance 405 nm
# Description: Assays against freshly collected human erythrocytes were performed following protocols described by Pedron et al.[54]. Briefly, peptide aliquots at concentrations ranging from 0.1 to 100 μmol L^−1 were incubated with a suspension of erythrocytes at room temperature for 1 h. The samples were then centrifuged, and the absorbance of the supernatant was measured at 405 nm. […] The surfactant SDS and PBS buffer were used as positive[81],[82] and negative controls, respectively. Sodium heparin was used as an anticoagulant when collecting human blood. Three biological repeats were performed. All experiments were performed in accordance with the protocol CEUA/IB #I-1345/15 approved by the Instituto Butantan.
# [3] = test system: MCF-7 human breast cancer cells; experiment: MTT assay, anticancer activity; assay type: cell-based; conditions: 37 °C; for MCF-7 4 h LD50: 4 h of incubation; for MCF-7 24 h LD50: 24 h of incubation
# Description: The anticancer activity assays were performed using MCF-10A human breast epithelial cells and MCF-7 mammary cancer cells as previously described by Pedron et al.[78]. Briefly, the day before treatment, the cells were incubated at 37 °C and 5% CO2 for 24 h. The cells were treated with peptides ranging from 12.5 to 100 μmol L^−1 (MCF10-A cells) and 0.8 to 100 μmol L^−1 (MCF-7 cells) for 4 h and 24 h at 37 °C, and cell viability was measured using 3-(4,5-Dimethylthiazol-2-yl)-2,5-diphenyltetrazolium bromide (MTT) assays[79],[80]. Three independent replicates were performed in each case.
# [4] = Mouse body weight in the skin abscess infection model; assay type: in vivo
# Description: The anti-infective activity of the peptides VmCT1, temporin A, VT, and TV against A. baumannii ATCC 19606 was evaluated as described by Torres et al.[7],[83] Bacteria were grown in tryptic soy broth medium to an optical density of 0.5 at 600 nm. Cells were washed twice with sterile phosphate-buffered saline (pH 7.4, 13,000 rpm for 1 min) and resuspended to a final concentration of 1 × 10^7 CFU/20 μL. To generate the skin infection, female CD-1 mice (6-weeks-old) were first anesthetized with isoflurane and their backs were shaved. Using a needle, a superficial linear abrasion was made on the shaved area of the mice to injure just the stratum corneum and the upper layer of the epidermis. An aliquot of 20 μL containing 1 × 10^7 CFU of A. baumannii was then inoculated over the wound area with a pipette tip. The next day, the infected area was treated with the peptides (i.e., VmCT1, temporin A, VT, and TV), which were administered onto the abscess at their MIC. The animals were euthanized, and the scarified skin area removed 2- and 4-days post-infection. The excised area was homogenized using a bead beater for 20 min (25 Hz) and serially diluted for CFU quantification. Eight mice were used per group (n = 8). All experiments were performed in accordance with protocol 806763 approved by the IACUC at the University of Pennsylvania.
# [5] = LC peak area, time 0 = 100, 0.5 h, replicate 1
# [6] = LC peak area, time 0 = 100, 0.5 h, replicate 2
# [7] = LC peak area, time 0 = 100, 0.5 h, replicate 3
# [8] = LC peak area, time 0 = 100, 1 h, replicate 1
# [9] = LC peak area, time 0 = 100, 1 h, replicate 2
# [10] = LC peak area, time 0 = 100, 1 h, replicate 3
# [11] = LC peak area, time 0 = 100, 2 h, replicate 1
# [12] = LC peak area, time 0 = 100, 2 h, replicate 2
# [13] = LC peak area, time 0 = 100, 2 h, replicate 3
# [14] = LC peak area, time 0 = 100, 4 h, replicate 1
# [15] = LC peak area, time 0 = 100, 4 h, replicate 2
# [16] = LC peak area, time 0 = 100, 4 h, replicate 3
# [17] = LC peak area, time 0 = 100, 6 h, replicate 1
# [18] = LC peak area, time 0 = 100, 6 h, replicate 2
# [19] = LC peak area, time 0 = 100, 6 h, replicate 3
Substance,"Peptide remaining [1, 5]","Peptide remaining [1, 6]","Peptide remaining [1, 7]","Peptide remaining [1, 8]","Peptide remaining [1, 9]","Peptide remaining [1, 10]","Peptide remaining [1, 11]","Peptide remaining [1, 12]","Peptide remaining [1, 13]","Peptide remaining [1, 14]","Peptide remaining [1, 15]","Peptide remaining [1, 16]","Peptide remaining [1, 17]","Peptide remaining [1, 18]","Peptide remaining [1, 19]",MIC against P. aeruginosa [2] [µM],Hemolytic activity (concentration of peptide needed to kill 10% of red blood cells) (human erythrocytes) [µmol/L],MCF-7 4 h LD50 [3] [µmol/L],MCF-7 24 h LD50 [3] [µmol/L],further results
FLGTLWGGAKGVF-NH2 [VP],24.2,22.1,20.2,14.7,16.0,11.8,3.6,3.6,4.4,0.0,0.0,0.0,0.0,0.0,0.0,128,100,–,–,–
"FLPLIGRVLSGIL-NH2 [Temporin A, reference compound]",0,0,–,0,0,0,0,0,0,0,0,0,0,0,0,–,0.2,50,50,"Mouse body weight, normalized to the weight at the beginning of the experiment ([4]; day 0 = 100, Day 1, replicate 1): 95; Mouse body weight, normalized to the weight at the beginning of the experiment ([4]; day 0 = 100, Day 1, replicate 2): 105; Mouse body weight, normalized to the weight at the beginning of the experiment ([4]; day 0 = 100, Day 1, replicate 3): 100; Mouse body weight, normalized to the weight at the beginning of the experiment ([4]; day 0 = 100, Day 2, replicate 1): 95; Mouse body weight, normalized to the weight at the beginning of the experiment ([4]; day 0 = 100, Day 2, replicate 2): 100; Mouse body weight, normalized to the weight at the beginning of the experiment ([4]; day 0 = 100, Day 2, replicate 3): 100; Mouse body weight, normalized to the weight at the beginning of the experiment ([4]; day 0 = 100, Day 3, replicate 1): 95; Mouse body weight, normalized to the weight at the beginning of the experiment ([4]; day 0 = 100, Day 3, replicate 2): 100; Mouse body weight, normalized to the weight at the beginning of the experiment ([4]; day 0 = 100, Day 3, replicate 3): 95; Mouse body weight, normalized to the weight at the beginning of the experiment ([4]; day 0 = 100, Day 4, replicate 1): 95; Mouse body weight, normalized to the weight at the beginning of the experiment ([4]; day 0 = 100, Day 4, replicate 2): 100; Mouse body weight, normalized to the weight at the beginning of the experiment ([4]; day 0 = 100, Day 4, replicate 3): 95; Peptide remaining after 30 min ([1]; LC peak area vs time 0, 30 min, three replicates): totally degraded; remaining at 0.5 h ([1]; fetal bovine serum, 25% in water, LC peak area, time 0 = 100, 0.5 h, replicate 3, read-out: Peptide remaining): 0%"
ILGAILNVLKSLG-NH2 [PV],98,85,88,0,0,0,0,0,0,0,0,0,0,0,0,128,25,–,–,"Peptide remaining after 1 h ([1]; LC peak area vs time 0, 1 h, three replicates): totally degraded"
"ILGTILGLLKGL-NH2 [Protonectin, reference compound]",0.0,0.0,0.0,–,0.0,0.0,0.0,0.0,0.0,0.0,0.0,0.0,0.0,0.0,0.0,128,12.5,25,25,"Degradation in fetal bovine serum (in words) ([1]; exposure for 6 h, LC): quickly degraded; remaining at 1 h ([1]; fetal bovine serum, 25% in water, LC peak area, time 0 = 100, 1 h, replicate 1, read-out: Peptide remaining): 0%"
